“And” between values parts separate entries of the source, which are not always exact repeats. Identical values can stand only once. “Also recorded” adds a separate entry of the source. Like-named read-outs stand apart in the source and are kept apart here.
Columns and labels:
wireworm larvae = conditions: Doane et al. (1975); cited from earlier work
[1] = tested on: plant-parasitic nematodes; conditions: cited from earlier work
[2] = tested on: western corn root worm larvae
[3] = tested on: western corn root worm larvae; conditions: literature reports; cited from earlier work
Reticulitermes tibialis = test: T-tube choice-test behavioral bioassay with CO2; assay type: in vivo
Protocol: (§1) Behavioral bioassay apparatus: The choice-test bioassay apparatus was constructed from a glass T-tube (5 mm inside diameter, 5 mm stem, with each branch 4.5 cm long). Each branch of the ‘T’ was bent downward (2.5 cm from the junction of the ‘T’) at a 45° angle to form a pitfall trap. A 5 mm NMR cap (cat. no. 100-0050, Drummond Scientific, Broomall, Pa.) with a 1 mm pinhole in it was firmly pushed over the end of each bent branch. A 25 cm length of Teflon tubing (0.8 mm inside diameter) was inserted 3 mm into the hole in each NMR cap and the other end of the tubing was connected to a 35 ml polyethylene syringe (cat. no. 106-0490, Sherwood Medical, St. Louis, Mo.). The two 35-ml syringes were connected to a syringe pump which was adjusted to provide an airflow of 1 ml per min into each choice arm of the bioassay apparatus. Mixtures of CO2 and ambient air were tested to determine the termite response to a range of CO2 concentrations. A 35-ml syringe was rinsed with distilled water and partially filled (5 ml) with ambient air. Different amounts of 100% CO2 were obtained with a smaller glass syringe from a tank and injected into the 35-ml syringe. Ambient air was then drawn into the 35-ml syringe to fill it and mix the gases by turbulence as the syringe was loaded. A 2nd 35-ml polyethylene syringe was filled with ambient air for a control. Measurements with GC-MS-SIM confirmed that the CO2 concentrations reached equilibrium after 15 min. The CO2 concentration of the syringes was determined by using GC-MS-SIM analysis (see below) before each bioassay. Bioassays were conducted with both Reticulitermes tibialis and Reticulitermes flavipes for 1, 2, 5, 10, 20, 50 and 500 mmol per mol concentrations of CO2 and with Reticulitermes virginicus for 5, 10, 20, and 50 mmol per mol. Procedure: For bioassays, termite workers were collected from plastic tubs by using a camel's hair brush and were placed into a holding container constructed from a 3 cm length of Teflon tubing (8 mm inside diameter). The container was plugged at one end with a NMR cap with two holes (1 mm) drilled in the bottom. A second NMR cap with a 4 mm hole was inserted backwards into the other end of the Teflon tube. The end of the NMR cap was sealed with a small square of cellophane held in place with a plastic tube (a piece of plastic soda straw) that fit snugly over the open end. Termites (5 workers) were placed in the container and the top was sealed. The container was placed horizontally and left undisturbed for 20 min. The T-tube apparatus was assembled and clamped horizontally on top of a block of foam rubber (12 by 12 cm) with a wire bent into a U-shape. The syringe pump was turned on, and after 3 min of pumping, the cellophane seal was removed from the holding container and the entrance to the holding container was gently connected to the central arm of the T-tube, allowing termites to crawl out and enter the apparatus. Bioassays were conducted for 15 min, after which the number of termites in each pitfall was recorded. CO2 measurements: Gas chromatography-mass spectrometry in selected ion monitoring mode (GC-MS-SIM) at m/e 44 was used to determine CO2 concentrations. A Hewlett-Packard Series II 5890 gas chromatograph interfaced with a Hewlett-Packard 5971 mass selective detector was used with a methyl silicone capillary column (30 m×0.32 mm inside diameter, RSL-150, Alltech, Deerfield, Ill.). […]

[4] = tested on: Reticulitermes virginicus; test: T-tube choice-test behavioral bioassay with CO2; assay type: in vivo; conditions: versus ambient air
Protocol: as §1

Reticulitermes flavipes = test: T-tube choice-test behavioral bioassay with CO2; assay type: in vivo; conditions: versus ambient air
Protocol: as §1

O=C=O [CO2, Carbon dioxide]
Smallest CO2 difference to which larvae respond (wireworm larvae): 0.02%
CO2 threshold for nematode response ([1]; higher baseline concentration (1.0%)): 0.05%
CO2 threshold for nematode response ([1]; low baseline levels of CO2 (0.1%)): 0.01%
Selective response, attraction to higher CO2 concentration ([2]; 0.125 mmol/mol difference at higher base concentrations): no difference in attraction was observed in any of the tests at higher concentrations
Larvae attracted to CO2 side versus control side ([2]; 10 mmol/mol CO2 (10.43±0.18) versus ambient air, syringe sources): significantly more western corn root worm larvae (P<0.05) were attracted to the side containing 10 mmol/mol CO2
Selective response, attraction to higher CO2 concentration ([2]; 1 versus 1.125 mmol/mol (actual 1.06±0.05 versus 1.18±0.05)): significantly greater attraction was observed to 1.125 mmol/mol than to 1 mmol/mol
Selective response, attraction to higher CO2 concentration ([2]; 1 versus 1.25 mmol/mol): more attracted to the higher CO2 concentration
Selective response, attraction to higher CO2 concentration ([2]; 1 versus 1.50 mmol/mol): Significantly more larvae were attracted
Selective response, attraction to higher CO2 concentration ([2]; 2 versus 2.25 mmol/mol): more attracted to the higher CO2 concentration
Selective response, attraction to higher CO2 concentration ([2]; 2 versus 2.50 mmol/mol): Significantly more larvae were attracted
Selective response, attraction to higher CO2 concentration ([2]; 5 versus 5.25 mmol/mol): no difference in attraction was observed
Selective response, attraction to higher CO2 concentration ([2]; 5 versus 5.50 mmol/mol): Significantly more larvae were attracted
Selective response, attraction to higher CO2 concentration ([2]; 10 versus 10.25 mmol/mol): no difference in attraction was observed
Selective response, attraction to higher CO2 concentration ([2]; 10 versus 10.50 mmol/mol): Significantly more larvae were attracted
Selective response, attraction to higher CO2 concentration ([2]; 20 versus 20.25 mmol/mol): no difference in attraction was observed
Selective response, attraction to higher CO2 concentration ([2]; 20 versus 20.50 mmol/mol): no difference in attraction was observed
Smallest difference between the 2 CO2 choices still attracting larvae to the higher concentration ([2]; base level 1 mmol/mol): 0.125 mmol/mol
CO2 excess over control at which larvae were 1st attracted ([2]; control contained 1, 2, 5, 10, and 20 mmol/mol CO2): 12.5%
Lowest CO2 concentration significantly attractive to neonate larvae ([2]; control side ambient air 0.99±0.02 mmol/mol): 1.125±0.04 mmol/mol
Highest concentration of CO2 to which larvae were attracted ([2]; dose-response, syringe sources): 100 mmol/mol and 85.6±1.20 mmol/mol
Most attractive (optimal) concentrations of CO2 ([2]; dose-response, syringe sources): 2.51-4.20 mmol/mol and 2.51±0.13 mmol/mol and 4.20±0.21 mmol/mol
Lowest concentration of CO2 attractive to the larvae ([2]; dose-response, syringe sources, control 0.91±0.03): 1.34±0.05 mmol/mol
Attraction of larvae reported in earlier publications [3]: highly attracted to CO2
Termites choosing CO2 side versus control side (Reticulitermes tibialis; 5 mmol/mol CO2 versus ambient air): significantly greater than the number that moved to the control side; also recorded: significantly more often; also recorded: Significantly more termites (p<0.05) were attracted to the side containing 5 mmol/mol CO2 than to the control side
CO2 concentration of best attraction (Reticulitermes tibialis; versus ambient air): 5 mmol per mol
CO2 concentrations to which termites were attracted (Reticulitermes tibialis; versus ambient air, 5 workers, 15 min): 10 mmol per mol and 20 mmol per mol
CO2 concentration of best attraction [4]: 10 mmol per mol
CO2 concentration of best attraction (Reticulitermes flavipes): 10 mmol per mol

ClCCl [dichloromethane, reference compound]
Attraction of larvae reported in earlier publications [3]: attractive to Diabrotica larvae
